The results in this text go back to ChEMBL document CHEMBL6087398, “Natural phenol carbamates: Selective BuChE/FAAH dual inhibitors show neuroprotection in an Alzheimer's disease mouse model” (Eur J Med Chem, 2025).

Molecules are shown by their SMILES. Activity calls are given as the source filed them. The calls are words filed in the database; no cut-off is given here.

The target of series [1] is T1, Fatty-acid amide hydrolase 1 (Homo sapiens, UniProt O00519).
T1 sequence (O00519 whole entry): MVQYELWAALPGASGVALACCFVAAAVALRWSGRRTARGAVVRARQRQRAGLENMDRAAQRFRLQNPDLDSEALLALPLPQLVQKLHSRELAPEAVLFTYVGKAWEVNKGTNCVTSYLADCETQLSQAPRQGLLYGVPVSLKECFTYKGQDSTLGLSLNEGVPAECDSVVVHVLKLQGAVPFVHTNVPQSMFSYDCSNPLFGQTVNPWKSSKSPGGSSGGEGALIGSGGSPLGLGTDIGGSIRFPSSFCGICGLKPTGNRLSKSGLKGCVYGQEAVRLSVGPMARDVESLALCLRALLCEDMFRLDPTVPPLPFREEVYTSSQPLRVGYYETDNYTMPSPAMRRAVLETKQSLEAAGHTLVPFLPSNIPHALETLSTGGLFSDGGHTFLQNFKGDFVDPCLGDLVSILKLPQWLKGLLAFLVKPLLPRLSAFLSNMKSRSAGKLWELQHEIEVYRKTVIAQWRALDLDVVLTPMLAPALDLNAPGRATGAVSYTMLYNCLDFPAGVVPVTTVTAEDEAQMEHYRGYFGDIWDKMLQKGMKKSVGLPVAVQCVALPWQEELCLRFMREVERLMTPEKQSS
The series is described as follows: Inhibition of human FAAH.

The subject of series [2] is PC-12. The series is described as follows: Neuroprotective activity against H2O2 induced rat PC12 cells assessed as cell viability measured after 24 hrs by MTT assay. It counts as functional, cell-based. Conditions: dose 6.25-50 µM. A general note: Tetrazolium dyes change colour on reduction, which living cells bring about.
Series [3] deals with L02. The series is described as follows: Cytotoxicity against human L02 cells assessed as reduction in cell viability at 6.25 to 50 uM incubated for 24 hrs by MTT assay relative to control. Conditions: l02, 24 h, dose 6.25-50 µM. It counts as toxicity, cell-based.
Series [4] relates to Mus musculus. The series is described as follows: Antialzheimer activity against amyloid beta (1 to 42 residues) induced ICR male mouse model assessed as prevention in cognitive dysfunction at 10 mg/kg, po administered for 12 days by Morris water maze test. It counts as functional, organism-based. Particulars: time 12.0 day.
Another series in a line: in vitro. Conditions: PAMPA, pH 7.4.
For series [5], the target named is T1, Fatty-acid amide hydrolase 1. The series can be described thus: Inhibition of human FAAH using arachidonoyl amide as substrate incubated for 30 mins by fluorescence-based cayman assay.
Series [6] can be described thus: Toxicity in amyloid beta (1 to 42 residues) induced ICR male mouse model assessed as effect on body weight at 10 mg/kg, po administered for 12 days and measured daily. The series is classed as organism-based. Particulars: in vivo, 288 h, time 12 day.
Series [7] concerns Mus musculus. The series is described as follows: Antialzheimer activity against amyloid beta (1 to 42 residues) induced ICR male mouse model assessed as reduction in amyloid beta (1 to 42 residues) at 10 mg/kg, po administered for 12 days by ELISA relative to control. Further details: scale not given: the % may be the effect or the level left. Conditions: time 12 day. The series is classed as functional. In general terms: An ELISA detects its analyte on a solid surface through an enzyme-linked reagent.

The nature of series [8]: Neurotoxicity against mouse BV-2 cells assessed as improvement in cell morphological changes at 20 uM by inverted microscopic analysis. The series is classed as toxicity, cell-based. Conditions: bv-2, 20 µM.
Series [9] can be described thus: Neurotoxicity against mouse BV-2 cells assessed as reduction in cell viability at 25 to 50 uM incubated for 24 hrs by MTT assay. Conditions: bv-2, 24 h, dose 25-50 µM. It counts as toxicity, cell-based.
The target in series [10] is Acetylcholinesterase (Homo sapiens) (UniProt P22303). The series can be described thus: Inhibition of recombinant human AChE using acetylthiocholine iodide as substrate incubated for 5 mins relative to control.
Sequence of Acetylcholinesterase (Homo sapiens) (P22303 whole entry, the tested form may be a part): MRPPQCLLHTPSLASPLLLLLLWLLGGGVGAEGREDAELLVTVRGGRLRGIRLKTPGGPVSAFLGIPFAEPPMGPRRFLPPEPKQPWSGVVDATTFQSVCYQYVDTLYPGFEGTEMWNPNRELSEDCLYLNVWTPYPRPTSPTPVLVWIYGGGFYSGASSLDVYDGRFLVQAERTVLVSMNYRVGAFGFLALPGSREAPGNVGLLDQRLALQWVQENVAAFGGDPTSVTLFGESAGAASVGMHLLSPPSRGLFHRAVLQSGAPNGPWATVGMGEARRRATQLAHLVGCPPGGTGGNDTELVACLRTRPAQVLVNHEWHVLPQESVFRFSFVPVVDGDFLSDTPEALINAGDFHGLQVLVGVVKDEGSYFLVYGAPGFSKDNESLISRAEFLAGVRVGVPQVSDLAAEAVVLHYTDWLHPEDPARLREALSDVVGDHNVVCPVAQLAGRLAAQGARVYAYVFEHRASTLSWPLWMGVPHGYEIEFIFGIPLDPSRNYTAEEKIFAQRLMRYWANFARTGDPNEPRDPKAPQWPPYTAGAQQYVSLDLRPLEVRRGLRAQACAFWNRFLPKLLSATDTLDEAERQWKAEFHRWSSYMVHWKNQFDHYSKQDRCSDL
A short description of series [11]: Toxicity in amyloid beta (1 to 42 residues) induced ICR male mouse model assessed as pericentral necrosis at 10 mg/kg, po administered for 12 days and measured on day 15 by H and E staining based immunohistochemistry analysis. It counts as organism-based. Conditions: in vivo, 288 h, time 12 day.
The subject of series [12] is Mus musculus. The series is described as follows: Antialzheimer activity against amyloid beta (1 to 42 residues) induced ICR male mouse model assessed as increase in neuron density in hippocampal CA1 region at 10 mg/kg, po administered for 12 days and measured on day 15 by H and E staining based analysis. It counts as functional, organism-based. Conditions: time 12.0 day.

Series [13] has as its system BV-2. The series can be described thus: Induction of microglial polarization to M2 phenotype in mouse BV-2 cells assessed as increase in Arg-1 expression incubated for 24 hrs by Western blotting analysis. Particulars: dose 0-10 µM. It counts as functional, cell-based. (In general: In western blotting, separated proteins are transferred to a membrane and probed.)
Series [14] deals with L02. The series can be described thus: Cytotoxicity against human L02 cells assessed as reduction in cell viability at 12.5 uM incubated for 24 hrs by MTT assay. It counts as toxicity, cell-based. Particulars: l02, 24 h.
Series [15] is described as follows: Toxicity in amyloid beta (1 to 42 residues) induced ICR male mouse model assessed as hepatocyte fatty degeneration at 10 mg/kg, po administered for 12 days and measured on day 15 by H and E staining based immunohistochemistry analysis. The series is classed as organism-based. Conditions: in vivo, 288 h, time 12 day.
Series [16] deals with BV-2. The series can be described thus: Immunomodulatory activity in mouse BV-2 cells assessed as decrease in LPS induced IL-1 beta release at 10 uM incubated for 24 hrs by Western blotting analysis. It counts as functional, cell-based.
The target in series [17] is T2, Cholinesterase (Homo sapiens, UniProt P06276). The series is described as follows: Binding affinity to human BuChE (unknown origin) assessed as overall carbamolyation rate at 100 to 1000 nM incubated for 60 mins.
T2 sequence (P06276 whole entry): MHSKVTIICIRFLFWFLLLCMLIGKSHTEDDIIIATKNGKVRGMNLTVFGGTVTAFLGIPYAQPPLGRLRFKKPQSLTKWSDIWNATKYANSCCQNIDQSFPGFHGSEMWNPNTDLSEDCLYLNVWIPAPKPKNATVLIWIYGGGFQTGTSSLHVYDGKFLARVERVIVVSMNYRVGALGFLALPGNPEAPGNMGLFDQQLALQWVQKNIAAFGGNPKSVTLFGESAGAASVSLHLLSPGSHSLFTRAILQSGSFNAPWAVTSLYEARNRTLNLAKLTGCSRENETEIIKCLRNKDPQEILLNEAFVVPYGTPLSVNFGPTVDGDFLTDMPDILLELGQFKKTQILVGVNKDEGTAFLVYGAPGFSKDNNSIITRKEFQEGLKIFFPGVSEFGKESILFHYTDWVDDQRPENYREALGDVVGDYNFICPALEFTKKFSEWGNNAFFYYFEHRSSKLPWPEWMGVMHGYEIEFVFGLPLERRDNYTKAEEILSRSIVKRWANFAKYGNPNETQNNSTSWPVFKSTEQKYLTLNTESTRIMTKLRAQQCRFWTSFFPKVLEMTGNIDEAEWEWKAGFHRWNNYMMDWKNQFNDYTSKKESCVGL
In series [18] the test system is BV-2. The series can be described thus: Induction of microglial polarization to M2 phenotype in mouse BV-2 cells assessed as increase in Arg-1 activity incubated for 24 hrs by Western blotting analysis. It counts as functional, cell-based.
The test system of series [19] is BV-2. The series can be described thus: Induction of microglial polarization to M2 phenotype in mouse BV-2 cells assessed as reduction in iNOS activity incubated for 24 hrs by Western blotting analysis. It counts as functional, cell-based.
The target in series [20] is T2, Cholinesterase. The series can be described thus: Binding affinity to human BuChE (unknown origin) assessed as carbamolyation rate at 100 to 1000 nM incubated for 60 mins. Particulars: dose 100-1000 nM.
For series [21], the system named is BV-2. The series is described as follows: Immunomodulatory activity in mouse BV-2 cells assessed as decrease in LPS induced iNOS expression at 10 uM incubated for 24 hrs by Western blotting analysis. It counts as functional, cell-based.
Series [22] deals with T2, Cholinesterase. The series is described as follows: Binding affinity to human BuChE (unknown origin) assessed as equilibrium dissociation constant at 100 to 1000 nM incubated for 60 mins.
Series [23] concerns BV-2. The series can be described thus: Induction of microglial polarization to M2 phenotype in mouse BV-2 cells assessed as increase in CD206 expression incubated for 24 hrs by Western blotting analysis. It counts as functional, cell-based. Particulars: dose 0-10 µM.
In series [24] the target is Cholinesterase (Equus caballus, UniProt P81908). The series can be described thus: Inhibition of equine BuChE using butyrylthiocholine iodide as substrate preincubated with enzyme for 20 mins followed by substrate addition and measured after 20 mins by Ellman's method.
Sequence of Cholinesterase (Equus caballus, UniProt P81908) (P81908 whole entry): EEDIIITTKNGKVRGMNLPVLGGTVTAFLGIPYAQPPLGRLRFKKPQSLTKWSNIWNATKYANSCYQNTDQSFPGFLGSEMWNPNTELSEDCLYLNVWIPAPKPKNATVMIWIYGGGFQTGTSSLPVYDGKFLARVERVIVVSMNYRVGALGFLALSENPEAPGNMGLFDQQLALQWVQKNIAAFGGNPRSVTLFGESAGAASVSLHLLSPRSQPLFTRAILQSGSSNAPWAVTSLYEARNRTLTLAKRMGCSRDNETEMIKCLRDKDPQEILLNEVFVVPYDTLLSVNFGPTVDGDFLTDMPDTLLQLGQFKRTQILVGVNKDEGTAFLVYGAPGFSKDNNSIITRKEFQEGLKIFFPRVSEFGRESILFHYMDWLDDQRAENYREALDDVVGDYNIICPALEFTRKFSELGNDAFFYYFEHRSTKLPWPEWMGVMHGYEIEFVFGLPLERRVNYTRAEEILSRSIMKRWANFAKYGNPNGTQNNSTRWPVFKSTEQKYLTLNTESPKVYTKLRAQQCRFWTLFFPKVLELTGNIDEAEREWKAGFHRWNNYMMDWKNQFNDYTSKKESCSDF
The subject of series [25] is BV-2. The series is described as follows: Immunomodulatory activity in mouse BV-2 cells assessed as decrease in LPS induced IL-1 beta release incubated for 24 hrs by Western blotting analysis. The series is classed as functional, cell-based. Conditions: dose 0-10 µM.
The subject of series [26] is PC-12. The series is described as follows: Neuroprotective activity against H2O2 induced rat PC12 cells assessed as increase in cell viability at 50 uM measured after 24 hrs by MTT assay relative to control. The series is classed as functional.
Series [27] deals with T2, Cholinesterase. The series can be described thus: Binding affinity to human BuChE (unknown origin) assessed as decarbamolyation rate at 100 to 1000 nM incubated for 60 mins. Conditions: dose 100-1000 nM.
The target of series [28] is Acetylcholinesterase (Electrophorus electricus) (UniProt O42275). The series is described as follows: Inhibition of electric eel AChE using acetylthiocholine iodide as substrate preincubated with enzyme for 20 mins followed by substrate addition and measured after 20 mins by Ellman's method. Further details: concentration or dose not given beside the values. Conditions: time 40.0 min.
Sequence of Acetylcholinesterase (Electrophorus electricus) (O42275 24-633 limits assumed): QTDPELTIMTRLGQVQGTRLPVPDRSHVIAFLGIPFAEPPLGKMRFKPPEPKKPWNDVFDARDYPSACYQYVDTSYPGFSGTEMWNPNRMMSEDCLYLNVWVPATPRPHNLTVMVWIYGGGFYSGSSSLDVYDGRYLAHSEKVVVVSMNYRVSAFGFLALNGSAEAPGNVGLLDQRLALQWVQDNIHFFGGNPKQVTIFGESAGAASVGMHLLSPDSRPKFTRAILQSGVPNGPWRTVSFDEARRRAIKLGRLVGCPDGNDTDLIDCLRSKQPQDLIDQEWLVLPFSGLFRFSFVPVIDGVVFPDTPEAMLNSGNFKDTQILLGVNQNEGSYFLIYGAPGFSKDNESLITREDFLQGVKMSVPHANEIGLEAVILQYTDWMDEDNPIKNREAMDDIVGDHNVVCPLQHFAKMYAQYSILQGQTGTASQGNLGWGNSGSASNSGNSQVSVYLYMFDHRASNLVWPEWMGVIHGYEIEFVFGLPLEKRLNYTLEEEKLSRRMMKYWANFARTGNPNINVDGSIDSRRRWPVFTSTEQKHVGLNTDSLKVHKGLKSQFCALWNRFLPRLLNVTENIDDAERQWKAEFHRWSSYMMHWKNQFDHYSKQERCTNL

Series [29] concerns the target T2, Cholinesterase. The series can be described thus: Inhibition of human BuChE using butyrylthiocholine iodide as substrate incubated for 5 mins.

Description for in vitro: Permeability of the compound in PBS at pH 7.4 incubated for 18 hrs by PAMPA-BBB assay

For orientation: IC50 means the concentration that inhibits the measured activity by half. As for `CN(C(=O)n1cnc(-c2ccc[n+]([O-])c2)c1)C1CCCCC1`, the IC50 in [1] amounted to 7500 nM.
For orientation: Papp means the rate of passage across a membrane or cell layer, normalised by area and donor concentration. One may read the inhibition as the drop in the measured response relative to a control, in per cent. The Kd is the concentration at which binding is half-saturated. On to `COc1ccc(C(C)=O)c(OC(=O)N(C)Cc2ccc(F)cc2)c1`, for which the Activity result in the series on PC-12 [2] was “Dose-dependent-effect”; with L02 [3], 88.6%; in series [6] it was “Non-toxic”; in the series with Mus musculus [7], 8.8%; in [8], “Non-toxic”; in series [9], “Non-toxic”. For the same molecule, the Activity result in series [11] was “Non-toxic”; with BV-2 [13], “Dose-dependent-effect”; in the series on L02 [14] it was “Non-toxic”; in series [15], “Non-toxic”; in the series on BV-2 [23], “Dose-dependent-effect”; with BV-2 [25], “Dose-dependent-effect”. In the series with PC-12 [26], the Activity worked out at 43%. Further, the outcome in the series with Mus musculus [4], with Mus musculus [12], with BV-2 [16], with BV-2 [18], with BV-2 [19] and with BV-2 [21] was Active. Also, in “in vitro”, the Papp at 18 h worked out at 16.4 ×10⁻⁶ cm/s. Besides, the IC50 is 400 nM in series [5], 12 nM against Cholinesterase [24] and 81 nM against Cholinesterase [29]. The inhibition amounted to 10.4% in [10] and 53% in series [28]. Further, the Ki at Cholinesterase [17] is 2.8 10^-3/uM/min. Moreover, the K at Cholinesterase [20] is 2.27 min⁻¹; on Cholinesterase [27] it was 2.83 min⁻¹. Besides, on Cholinesterase [22], the Kd worked out at 2110 nM.
